Results from US9682994B2, “Inhibitors of retroviral replication” (The Scripps Research Institute, priority 2011, dated 2017).

Assays:
[1] = tested on: HIV; assay: Viral RNA release from CD4+ T cells of aviremic (HAART) subjects, ultrasensitive RT-PCR; type: cell-based, human
Procedure: All patients provided written informed consent, according to the guidelines of the ethics committee of the Oregon Health and Science University. […] Viral production was measured in the supernatant by a sensitive in-house ELISA specific for the viral capsid protein, p24. […] Viral production was measured by quantification of viral particle-associated RNA by ultra-sensitive two-step quantitative real-time reverse transcription-PCR (RT-qPCR). Briefly, viral particles in the cell culture supernatant were pelleted by centrifugation (60 min, 25000 g at 4° C.). To generate the standard curve, a sample of LAI-HIV with known titer was pelleted in the same run. […]
Total viral RNA was reverse-transcribed into cDNA with gag gene-specific primers (25 pmol each), LM667 and GagR according to manufacturer's instructions (RT-PCR One Step kit—Invitrogen). Pre-amplified products were diluted in DNase-RNase free water, then subjected to quantitative real-time PCR on Rotor-Gene Q (Qiagen) in a reaction 25 pmol of the sense primer Lambda T, 25 pmol of the antisense primer AA55M, and 4 pmol of each hybridization probes (TIB MolBiol).
Total viral RNA (17 μL) was first treated with 1 unit DNase I (Invitrogen) for 10 min at 25° C. followed by DNase I inactivation with 1 μL 25 mM EDTA for 10 min at 65° C. Total viral RNA was then reverse-transcribed into cDNA for quantitative PCR analysis. […]

[2] = tested on: Tat transactivation of the HIV-1 LTR; assay: Tat transactivation assay, HeLa-CD4-LTR-Luc cells; type: cell-based
Procedure: Chloroquine 100 μM was added to increase Tat uptake was added to all points except untreated wells. Luciferase activity was measured 24 h later using the Luciferase Assay System (Promega). Luciferase activity per protein concentration of each sample is shown as relative light units (RLU). HI: Heat Inactivated.
FIG. 2B: HeLa-LTR-Luc cells were transfected with 2 μg of a construct expressing Tat-flag driven by the thymidine kinase (TK) promoter. […] Forty hours later RLU determined as in FIG. 2A.
Luciferase activity measured and results adjusted per protein concentration of each sample, relative light units (RLU).
PL11 cells were plated at 1×10^5 cells per well in a 6 well plate. The following day recombinant Tat protein (AIDS Research and Reference Reagent Program, Cat No. 11882) at 5 μg/ml and/or Cortistatin A at increasing concentrations were added to the cells, in culture media without serum and in the presence of 100 μM of chloroquine (increases Tat uptake). Five hours later, serum was added at 5% to the culture media. Forty hours later cells were lysed with 1× Lysis Buffer and luciferase activity was measured as before. Protein concentration was determined by Bradford assay. Results corresponding to the adjustment of the luciferase activity per protein concentration of each sample are shown as RLU. […]

[3] = Hepatic microsomal stability, human; type: in vitro ADME; details: 1 μM, 0.2-1 mg/ml microsomes, NADPH 1 mM
[4] = tested on: HIV-1 pNL4-3; assay: Viral RNA in chronically infected CEM SS cells; type: cell-based; details: 7 days treatment
Procedure: CEM SS cells chronically infected with pNL4-3 were treated with the indicated compounds for 7 days. Quantification of viral RNA was performed as in FIG. 1E.
Such an early time point rules out de novo infections. […] This conclusion was further supported by the fact that treatment of cells that were chronically infected, and therefore continuously shedding the virus (without incurring new infections, due to down-regulation of CD4 from the cell surface), reduced virus production to undetectable levels (FIG. 1F). […] Results were similar when viral release from cells treated for 60 days were measured by p24 enzyme-linked immunosorbent assay (ELISA) (FIG. 1G).

[5] = Mouse mini-PK, plasma levels by LC-MS/MS; type: in vivo, C57Bl-6 mice
Procedure: In vitro studies compared murine and human hepatic microsomes (150 donor mixed male/female pool). […] C57B16 mice were dosed at 10 mg/kg and drug levels were quantitated in plasma at 1, 6, and 24 h by LC-MS/MS (Table 1B).

[6] = tested on: HIV-2 (ROD/A); assay: Acute HIV-2 replication in HeLa-CD4 cells, p24 ELISA; type: cell-based; details: p24, 5 days post-infection
Text: Antigen p24 in the supernatant measured using a sandwiched ELISA kit, 5 days post-infection.

With `CN(C)[C@H]1C[C@@]23CC[C@@]4(O2)C(=CC[C@]2(C)C(c5ccc6ccncc6c5)=CC[C@H]24)C=C3[C@@H](O)[C@@H]1O` [dCA, didehydro-Cortistatin A] the “viability of the cells” value ([1]; at the concentrations used) was “did not affect the viability”, the “reduction of viral production” value ([1]; day 6, in the presence of ARVs, no IL-2) was 99.7% and the “basal transcription from the LTR promoter” value ([2]; absence of Tat, or PMA activation) was “did not alter basal transcription”. The “Tat-mediated transcriptional activation of LTR-Luc” value ([2]; recombinant Tat protein added) was “Transcriptional repression”, the “T1/2 hepatic microsomes, Human” value [3] was 1 h and the “viral RNA levels in chronically infected CEM SS” value [4] was “reduced viral RNA levels”. The “drug levels relative to the EC50 of cell-based assays” value ([5]; 1 h after dosing, 10 mg/kg) was “greater than 1000 fold”, the “plasma drug levels for all mice” value ([5]; 24 h post dose, 10 mg/kg) was “above 30 nM” and the health of mice ([5]; after 24 h treatment, 10 mg/kg) was “still healthy”. The bioavailability in mice ([5]; mouse, in vivo) was “good bioavailability” and the EC50 [6] was ~5 nM.
